{"source": "paper PMC11315827", "about": "(Drugs in R&D, 2024)", "key": {"[1]": {"assay": "Nonhuman primate PK study, plasma and CSF", "conditions": "for unbound partition coefficient Kp,uu CSF: based on plasma free fractions; for half-life / Cmax: male, cynomolgus monkey, in vivo, po; for Cmax: plasma Cmax"}, "[2]": {"target": "BTK (Homo sapiens, UniProt Q06187)", "sequence (Q06187 whole entry)": "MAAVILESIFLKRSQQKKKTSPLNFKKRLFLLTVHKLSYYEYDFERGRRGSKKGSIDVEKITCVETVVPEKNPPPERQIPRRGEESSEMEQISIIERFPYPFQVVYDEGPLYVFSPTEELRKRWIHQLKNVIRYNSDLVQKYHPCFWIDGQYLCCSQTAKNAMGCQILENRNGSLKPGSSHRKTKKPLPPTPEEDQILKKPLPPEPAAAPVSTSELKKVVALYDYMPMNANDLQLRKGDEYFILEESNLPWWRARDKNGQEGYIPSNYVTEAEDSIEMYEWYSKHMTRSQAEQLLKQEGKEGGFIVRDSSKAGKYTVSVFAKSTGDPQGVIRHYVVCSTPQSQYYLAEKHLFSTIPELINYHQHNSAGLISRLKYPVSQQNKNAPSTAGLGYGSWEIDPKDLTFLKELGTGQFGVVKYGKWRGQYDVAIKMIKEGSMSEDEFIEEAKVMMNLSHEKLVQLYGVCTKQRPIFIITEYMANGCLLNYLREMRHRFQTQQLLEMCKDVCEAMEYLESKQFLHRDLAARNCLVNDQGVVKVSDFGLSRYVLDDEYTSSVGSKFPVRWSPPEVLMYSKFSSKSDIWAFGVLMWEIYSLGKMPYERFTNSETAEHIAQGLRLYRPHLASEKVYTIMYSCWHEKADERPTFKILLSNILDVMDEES", "conditions": "\"reported as\"; cited from earlier work"}, "[3]": {"test_system": "Ramos cell expression of CD69 (BTK signaling)", "assay": "cells", "conditions": "Homo sapiens, 18 h, read-out: apparent IC50 (CD69 expression)"}, "[4]": {"target": "BLK (Homo sapiens, UniProt P51451)", "sequence (P51451 whole entry, species assumed)": "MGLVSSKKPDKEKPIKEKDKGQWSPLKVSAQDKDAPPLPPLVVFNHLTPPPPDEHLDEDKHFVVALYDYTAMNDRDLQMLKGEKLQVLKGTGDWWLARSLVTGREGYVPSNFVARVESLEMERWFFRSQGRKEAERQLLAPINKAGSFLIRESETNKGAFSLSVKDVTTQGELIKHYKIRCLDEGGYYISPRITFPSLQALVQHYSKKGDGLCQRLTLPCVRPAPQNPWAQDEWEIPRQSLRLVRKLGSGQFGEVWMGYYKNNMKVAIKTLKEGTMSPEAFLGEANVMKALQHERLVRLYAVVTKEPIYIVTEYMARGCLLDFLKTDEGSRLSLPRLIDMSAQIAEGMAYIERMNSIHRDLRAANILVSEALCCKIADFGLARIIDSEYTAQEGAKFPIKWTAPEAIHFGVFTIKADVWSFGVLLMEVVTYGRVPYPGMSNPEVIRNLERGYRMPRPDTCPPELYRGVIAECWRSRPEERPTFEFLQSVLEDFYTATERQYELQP", "assay": "Kinase screening assays"}, "[5]": {"target": "T1, BMX (Homo sapiens, UniProt P51813)", "T1 sequence (P51813 1-675)": "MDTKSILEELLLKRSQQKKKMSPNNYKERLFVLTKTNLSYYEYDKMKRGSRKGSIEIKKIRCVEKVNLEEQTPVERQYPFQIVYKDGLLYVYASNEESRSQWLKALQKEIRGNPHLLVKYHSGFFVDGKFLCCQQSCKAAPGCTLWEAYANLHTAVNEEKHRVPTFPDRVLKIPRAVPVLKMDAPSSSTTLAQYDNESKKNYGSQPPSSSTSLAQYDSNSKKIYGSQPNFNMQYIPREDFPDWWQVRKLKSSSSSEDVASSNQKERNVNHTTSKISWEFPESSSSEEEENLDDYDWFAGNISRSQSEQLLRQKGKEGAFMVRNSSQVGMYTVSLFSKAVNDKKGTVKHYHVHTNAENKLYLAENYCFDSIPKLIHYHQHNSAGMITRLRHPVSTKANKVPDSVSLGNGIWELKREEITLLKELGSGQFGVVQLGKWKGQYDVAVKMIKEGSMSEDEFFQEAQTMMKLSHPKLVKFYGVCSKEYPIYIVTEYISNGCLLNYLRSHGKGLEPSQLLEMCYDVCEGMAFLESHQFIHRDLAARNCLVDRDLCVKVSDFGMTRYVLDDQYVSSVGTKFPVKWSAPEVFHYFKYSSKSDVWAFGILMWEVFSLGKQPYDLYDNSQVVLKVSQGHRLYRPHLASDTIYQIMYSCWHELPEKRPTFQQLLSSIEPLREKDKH", "assay": "Kinase screening assays"}, "[6]": {"target": "T2, TXK (Homo sapiens, UniProt P42681)", "T2 sequence (P42681 1-527)": "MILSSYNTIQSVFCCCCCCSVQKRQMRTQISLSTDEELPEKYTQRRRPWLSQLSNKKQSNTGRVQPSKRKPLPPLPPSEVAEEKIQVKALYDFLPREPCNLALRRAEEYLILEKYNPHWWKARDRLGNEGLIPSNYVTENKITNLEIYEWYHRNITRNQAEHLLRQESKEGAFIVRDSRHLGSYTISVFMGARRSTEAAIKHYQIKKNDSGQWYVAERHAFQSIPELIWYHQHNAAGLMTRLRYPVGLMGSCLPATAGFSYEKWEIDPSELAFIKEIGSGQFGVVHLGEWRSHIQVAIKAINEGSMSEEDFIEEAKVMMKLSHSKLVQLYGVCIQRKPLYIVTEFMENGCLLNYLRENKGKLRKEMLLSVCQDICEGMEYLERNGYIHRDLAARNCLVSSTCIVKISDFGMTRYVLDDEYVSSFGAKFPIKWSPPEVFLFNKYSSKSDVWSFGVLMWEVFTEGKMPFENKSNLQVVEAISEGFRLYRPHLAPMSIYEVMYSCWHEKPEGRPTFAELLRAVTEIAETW", "assay": "Kinase screening assays"}}, "note": "Where “and” joins values, the source holds several entries; their conditions need not be identical. Equal values may be shown once."}
{"molecule": "C=CC(=O)N1CCC(CNc2ncnc(N)c2-c2ccc(Oc3ccccc3)cc2)CC1", "note": "[Evobrutinib]", "values": [{"measurement": "unbound partition coefficient Kp,uu CSF", "setting": "[1]", "value": 0.131}, {"measurement": "half-life", "setting": "[1]; 10 mg/kg", "value": "~4", "unit": "h"}, {"measurement": "Cmax", "setting": "[1]; 10 mg/kg, oral 10 mg/kg", "value": "287 ng/mL and 669 nM"}]}
{"molecule": "C[C@H]1CN(C2COC2)CCN1c1ccc(Nc2cc(-c3ccnc(N4CCn5c(cc6c5CC(C)(C)C6)C4=O)c3CO)cn(C)c2=O)nc1", "note": "[Fenebrutinib]", "values": [{"measurement": "dissociation rate", "setting": "[2]", "value": "1.52e-05", "unit": "s⁻¹"}, {"measurement": "IC50", "setting": "[3]", "value": 19.8, "unit": "nM"}, {"measurement": "unbound partition coefficient Kp,uu CSF", "setting": "[1]", "value": 0.147}, {"measurement": "Cmax", "setting": "[1]; 10 mg/kg, oral 10 mg/kg", "value": "553 ng/mL and 853 nM"}, {"measurement": "terminal t1/2 for elimination", "setting": "[1]; plasma, oral 10 mg/kg", "value": "slightly prolonged"}]}
{"molecule": "C=CC(=O)N1CCC[C@@H](n2c(=O)n(-c3ccc(Oc4ccccc4)cc3)c3c(N)nccc32)C1", "note": "[Tolebrutinib]", "values": [{"measurement": "CSF Cmax", "setting": "[1]; CSF, oral 10 mg/kg", "value": 9.6, "unit": "nM"}, {"measurement": "CSF exposure (Cmax)", "setting": "[1]; CSF, oral 10 mg/kg, 10 mg/kg", "value": 4.4, "unit": "ng/mL"}, {"measurement": "unbound partition coefficient Kp,uu CSF", "setting": "[1]", "value": 0.397}, {"measurement": "half-life", "setting": "[1]; 10 mg/kg", "value": "~4", "unit": "h"}, {"measurement": "Cmax", "setting": "[1]; 10 mg/kg, oral 10 mg/kg", "value": "103 ng/mL and 226 nM"}, {"measurement": "IC50", "setting": "[4]", "value": "≤ 4", "unit": "nM"}, {"measurement": "IC50", "setting": "[5]", "value": "≤ 4", "unit": "nM"}, {"measurement": "IC50", "setting": "[6]", "value": "≤ 4", "unit": "nM"}]}
